In ChEMBL document CHEMBL4190173 (Medchemcomm, 2016):
The source made the active and inactive calls. The calls are words filed in the database; no cut-off is given here.

Tests used:
[1] = target: T1, NAD-dependent protein deacetylase sirtuin-3, mitochondrial (Homo sapiens) (UniProt Q9NTG7); experiment: Inhibition of human recombinant SIRT3 at 50 uM using AMC-p53 ([…] residues) as substrate incubated for 45 mins followed by NAD+ addition measured after 30 mins by fluorescence assay relative to control
T1 sequence (whole entry): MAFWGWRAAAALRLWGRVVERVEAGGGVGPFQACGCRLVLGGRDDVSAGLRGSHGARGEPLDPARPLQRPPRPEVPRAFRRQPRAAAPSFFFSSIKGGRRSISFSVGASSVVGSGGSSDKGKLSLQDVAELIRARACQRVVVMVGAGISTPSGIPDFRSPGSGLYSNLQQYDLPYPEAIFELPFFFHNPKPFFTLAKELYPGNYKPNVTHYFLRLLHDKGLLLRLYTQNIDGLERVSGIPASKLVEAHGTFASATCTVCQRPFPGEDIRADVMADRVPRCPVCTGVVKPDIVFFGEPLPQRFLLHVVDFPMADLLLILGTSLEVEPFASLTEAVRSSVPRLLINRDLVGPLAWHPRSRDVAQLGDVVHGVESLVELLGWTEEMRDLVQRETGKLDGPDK

[2] = target: T2, NAD-dependent protein deacetylase sirtuin-2 (Homo sapiens) (UniProt Q8IXJ6); experiment: Inhibition of human recombinant SIRT2 at 50 uM using AMC-p53 ([…] residues) as substrate incubated for 45 mins followed by NAD+ addition measured after 30 mins by fluorescence assay relative to control
T2 sequence (whole entry): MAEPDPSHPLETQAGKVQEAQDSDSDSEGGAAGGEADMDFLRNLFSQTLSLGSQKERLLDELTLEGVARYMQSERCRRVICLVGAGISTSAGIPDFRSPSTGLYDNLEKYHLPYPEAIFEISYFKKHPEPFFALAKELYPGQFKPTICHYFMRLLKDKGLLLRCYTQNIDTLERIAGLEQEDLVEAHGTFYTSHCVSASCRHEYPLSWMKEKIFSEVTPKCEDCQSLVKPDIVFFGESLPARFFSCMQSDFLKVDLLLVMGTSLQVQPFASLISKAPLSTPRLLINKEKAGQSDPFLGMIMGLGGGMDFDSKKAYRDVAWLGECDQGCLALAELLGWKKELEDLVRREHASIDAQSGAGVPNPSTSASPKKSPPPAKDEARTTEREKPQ

[3] = target: T3, NAD-dependent protein deacetylase sirtuin-1 (Homo sapiens) (UniProt Q96EB6); experiment: Inhibition of human recombinant SIRT1 at 50 uM using AMC-p53 (379 to 382 residues) as substrate incubated for 45 mins followed by NAD+ addition measured after 30 mins by fluorescence assay relative to control
T3 sequence (whole entry): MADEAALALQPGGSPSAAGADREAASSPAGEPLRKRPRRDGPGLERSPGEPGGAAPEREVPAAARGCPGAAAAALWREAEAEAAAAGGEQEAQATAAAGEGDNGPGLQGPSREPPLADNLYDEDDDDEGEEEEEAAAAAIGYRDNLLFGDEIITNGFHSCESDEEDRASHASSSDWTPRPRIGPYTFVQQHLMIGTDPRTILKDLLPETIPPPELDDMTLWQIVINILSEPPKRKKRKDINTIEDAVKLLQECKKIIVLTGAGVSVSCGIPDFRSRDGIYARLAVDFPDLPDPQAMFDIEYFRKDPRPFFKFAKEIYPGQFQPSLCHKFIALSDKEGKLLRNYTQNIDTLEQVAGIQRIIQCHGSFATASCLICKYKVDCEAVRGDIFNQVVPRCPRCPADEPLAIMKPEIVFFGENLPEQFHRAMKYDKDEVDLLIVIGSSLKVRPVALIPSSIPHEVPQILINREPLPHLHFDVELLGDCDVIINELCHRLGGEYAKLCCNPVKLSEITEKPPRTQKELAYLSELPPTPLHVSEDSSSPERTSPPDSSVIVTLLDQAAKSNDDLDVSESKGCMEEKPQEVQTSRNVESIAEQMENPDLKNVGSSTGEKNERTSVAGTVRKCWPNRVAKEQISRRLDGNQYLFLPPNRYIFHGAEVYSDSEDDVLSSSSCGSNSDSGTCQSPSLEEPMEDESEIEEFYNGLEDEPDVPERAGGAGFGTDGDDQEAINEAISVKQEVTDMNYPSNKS

[4] = target: T4, NAD-dependent protein deacetylase sirtuin-1 (Homo sapiens, UniProt Q96EB6); experiment: Inhibition of human recombinant SIRT1 using AMC-p53 (379 to 382 residues) as substrate incubated for 45 mins followed by NAD+ addition measured after 30 mins by fluorescence assay
T4 sequence (Q96EB6 whole entry): T3 sequence (whole entry)

[5] = target: T5, NAD-dependent protein deacetylase sirtuin-2 (Homo sapiens, UniProt Q8IXJ6); experiment: Inhibition of human recombinant SIRT2 using AMC-p53 (317 to 320 residues) as substrate incubated for 45 mins followed by NAD+ addition measured after 30 mins by fluorescence assay
T5 sequence (Q8IXJ6 whole entry): T2 sequence (whole entry)

[6] = target: T2, NAD-dependent protein deacetylase sirtuin-2 (Homo sapiens); experiment: Competitive inhibition of human recombinant SIRT2 using varying levels of NAD+
[7] = target: T2, NAD-dependent protein deacetylase sirtuin-2 (Homo sapiens); experiment: Competitive inhibition of human recombinant SIRT2 using varying levels of AMC-p53 (317 to 320 residues) as substrate
[8] = target: T6, NAD-dependent protein deacetylase sirtuin-3, mitochondrial (Homo sapiens, UniProt Q9NTG7); experiment: Inhibition of human recombinant SIRT3 using AMC-p53 (317 to 320 residues) as substrate incubated for 45 mins followed by NAD+ addition measured after 30 mins by fluorescence assay
T6 sequence (Q9NTG7 whole entry): T1 sequence (whole entry)

Compound: CCCCCCCCn1c(-c2ccc(-c3ccc(Cl)cc3)cc2)nc2cc(C(=O)OCC)ccc21
- inhibition [1]: 24.9%
- inhibition [2]: 38.3%
- inhibition [3]: 24.3%

Compound: CCOC(=O)c1ccc(N2CCN(CCn3c(-c4ccc(-c5ccc(N(C)C)cc5)cc4)nc4cc(C(=O)OCC)ccc43)CC2)c(N)c1
- IC50 [4]: 10.2 µM
- IC50 [5]: 2.92 µM
- inhibition [6]: Active
- inhibition [7]: Active

Compound: CCCCCCCCn1c(-c2ccc(-c3ccc(OC(F)(F)F)cc3)cc2)nc2cc(C(=O)OCC)ccc21
- inhibition [1]: 16.9%
- inhibition [2]: 35.6%
- inhibition [3]: 25%

Compound: CN(C)CCCCC(=O)Nc1ccc(NC(=S)NC(=O)c2ccc(C(C)(C)C)cc2)cc1
- IC50 [8]: 82.6 µM

Compound: CCCCCCCCn1c(-c2ccc(-c3ccc(N(C)C)cc3)cc2)nc2cc(C(=O)OCC)ccc21
- IC50 [4]: > 50 µM
- IC50 [5]: 38.1 µM
- IC50 [8]: > 50 µM

Compound: CCOC(=O)c1ccc(N2CCN(CCn3c(-c4ccc(-c5ccc6c(c5)OCO6)cc4)nc4cc(C(=O)OCC)ccc43)CC2)c(N)c1
- IC50 [4]: 29.8 µM
- IC50 [5]: 16.1 µM
- IC50 [8]: 27 µM

Compound: CCOC(=O)c1ccc(N2CCN(CCn3c(-c4ccc(-c5ccc(N6CCCCC6)cc5)cc4)nc4cc(C(=O)OCC)ccc43)CC2)c(N)c1
- IC50 [4]: 37 µM
- IC50 [5]: 13.5 µM

Compound: CCOC(=O)c1ccc(N2CCN(CCn3c(-c4ccc(-c5ccc(O)cc5O)cc4)nc4cc(C(=O)OCC)ccc43)CC2)c(N)c1
- IC50 [4]: 20 µM
- IC50 [5]: 7.87 µM

Compound: CCOC(=O)c1ccc(N2CCN(CCn3c(-c4ccc(-c5ccc(C)cc5)cc4)nc4cc(C(=O)OCC)ccc43)CC2)c(N)c1
- inhibition [1]: 30.7%
- inhibition [2]: 43%
- inhibition [3]: 28.4%

Compound: CCOC(=O)c1ccc(N2CCN(CCn3c(-c4ccc(-c5ccc(OC(F)(F)F)cc5)cc4)nc4cc(C(=O)OCC)ccc43)CC2)c(N)c1
- inhibition [1]: 20.6%
- inhibition [2]: 37.2%
- inhibition [3]: 24.6%

Compound: CCCCCCCCn1c(-c2ccc(-c3ccc(O)cc3O)cc2)nc2cc(C(=O)OCC)ccc21
- inhibition [1]: 31.5%
- inhibition [2]: 45.9%
- inhibition [3]: 29%

Compound: CCOC(=O)c1ccc(N2CCN(CCn3c(-c4ccc(-c5ccc(Cl)cc5)cc4)nc4cc(C(=O)OCC)ccc43)CC2)c(N)c1
- inhibition [1]: 38%
- inhibition [2]: 43.3%
- inhibition [3]: 28.2%

Compound: CCOC(=O)c1ccc(N2CCN(CCn3c(-c4ccc(-c5ccc(O)c(OC)c5)cc4)nc4cc(C(=O)OCC)ccc43)CC2)c(N)c1
- IC50 [4]: 35.1 µM
- IC50 [5]: 8.61 µM

Compound: CCCCCCCCn1c(-c2ccc(-c3ccc(N4CCCCC4)cc3)cc2)nc2cc(C(=O)OCC)ccc21
- IC50 [4]: > 50 µM
- IC50 [5]: 36.8 µM
- IC50 [8]: > 50 µM

Compound: CCCCCCCCn1c(-c2ccc(-c3ccc4c(c3)OCO4)cc2)nc2cc(C(=O)OCC)ccc21
- IC50 [4]: > 50 µM
- IC50 [5]: 41.4 µM
- IC50 [8]: > 50 µM

Compound: CCCCCCCCn1c(-c2ccc(-c3ccccc3)cc2)nc2cc(C(=O)OCC)ccc21
- inhibition [1]: 20.4%
- inhibition [2]: 30%
- inhibition [3]: 23.9%

Compound: CCCCCCCCn1c(-c2ccc(-c3cccc(-c4ccc(F)cn4)c3)cc2)nc2cc(C(=O)OCC)ccc21
- inhibition [1]: 24.4%
- inhibition [2]: 14%
- inhibition [3]: 22%

Compound: CCOC(=O)c1ccc(N2CCN(CCn3c(-c4ccc(-c5ccccc5)cc4)nc4cc(C(=O)OCC)ccc43)CC2)c(N)c1
- inhibition [1]: 25.1%
- inhibition [2]: 26.8%
- inhibition [3]: 31.1%

Compound: CCOC(=O)c1ccc(N2CCN(CCn3c(-c4ccc(-c5cncc(-c6ccc(F)cc6)c5)cc4)nc4cc(C(=O)OCC)ccc43)CC2)c(N)c1
- inhibition [1]: 18.4%
- inhibition [2]: 20.9%
- inhibition [3]: 20.6%

Compound: CCCCCCCCn1c(-c2ccc(-c3ccc(C)cc3)cc2)nc2cc(C(=O)OCC)ccc21
- inhibition [1]: 19.4%
- inhibition [2]: 30.3%
- inhibition [3]: 15.3%

Compound: CCCCCCCCn1c(-c2ccc(-c3ccc(O)c(OC)c3)cc2)nc2cc(C(=O)OCC)ccc21
- IC50 [4]: > 50 µM
- IC50 [5]: 46.9 µM
- IC50 [8]: > 50 µM
